Measurements as given in PMC7153937, “Imipridone Anticancer Compounds Ectopically Activate the ClpP Protease and Represent a New Scaffold for Antibiotic Development” (Genetics, 2020).

Target: T1, S. aureus ClpP (Staphylococcus aureus, UniProt Q2G036)
T1 construct: S. aureus ClpP expressed from the GAL1 promoter in S. cerevisiae
Assay: yeast surrogate genetic assay: ClpP-dependent growth inhibition vs. empty vector
Format: cell-based

T1 sequence (Q2G036 whole entry): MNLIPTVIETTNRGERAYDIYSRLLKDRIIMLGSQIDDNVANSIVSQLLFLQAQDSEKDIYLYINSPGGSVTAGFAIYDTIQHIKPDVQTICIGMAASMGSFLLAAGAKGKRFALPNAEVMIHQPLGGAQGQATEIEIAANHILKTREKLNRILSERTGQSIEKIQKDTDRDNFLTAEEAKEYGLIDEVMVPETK

`O=C1C2=C(CCN(Cc3ccccc3)C2)N2CCN=C2N1Cc1ccc(C(F)(F)F)cc1` [ONC212] gave an IC50 of 5.4 µM.
